Values of other authors as cited in publication PMC2109944 (The Journal of Cell Biology, 1977).

Experiments:
[1] = system: mouse melanoma cells; conditions: binding at low temperature, no prefixation
[2] = system: human fibroblasts; conditions: 125I-epidermal growth factor
[3] = system: dissociated anterior pituitary cells

a-MSH
initial distribution of MSH receptor sites [1]: initially distributed at one pole of the cell over the Golgi area

epidermal growth factor: 125I-labelled epidermal growth factor, literature comparison
internalization of hormone-bearing receptors [2]: internalized within hours of the binding taking place

luteinizing hormone-releasing hormone [LHRH]
time to LH release by exocytosis after stimulation [3]: ≤ 1 min
desensitization after short-term exposure ([3]; short-term exposure): refractory to further stimulation by the peptide
